Reference: patent publication US20250163051A1, “PYRIMIDO AROMATIC RING COMPOUND AND USE THEREOF IN DRUG” (SUNSHINE LAKE PHARMA CO., LTD., priority 2022, published 2025)

Legend:
[1] = target: T1, hTLR7 (Homo sapiens, UniProt Q9NYK1); assay: Agonistic activity on human TLR7 in HEK-Blue hTLR7 cells (QUANTI-Blue); assay type: cell-based; details: 24 h incubation, OD650, read-out: hTLR 7 EC50
T1 construct: expressed in transfected cells; host or cells: HEK-Blue hTLR7 cells
T1 sequence (Q9NYK1 27-1049): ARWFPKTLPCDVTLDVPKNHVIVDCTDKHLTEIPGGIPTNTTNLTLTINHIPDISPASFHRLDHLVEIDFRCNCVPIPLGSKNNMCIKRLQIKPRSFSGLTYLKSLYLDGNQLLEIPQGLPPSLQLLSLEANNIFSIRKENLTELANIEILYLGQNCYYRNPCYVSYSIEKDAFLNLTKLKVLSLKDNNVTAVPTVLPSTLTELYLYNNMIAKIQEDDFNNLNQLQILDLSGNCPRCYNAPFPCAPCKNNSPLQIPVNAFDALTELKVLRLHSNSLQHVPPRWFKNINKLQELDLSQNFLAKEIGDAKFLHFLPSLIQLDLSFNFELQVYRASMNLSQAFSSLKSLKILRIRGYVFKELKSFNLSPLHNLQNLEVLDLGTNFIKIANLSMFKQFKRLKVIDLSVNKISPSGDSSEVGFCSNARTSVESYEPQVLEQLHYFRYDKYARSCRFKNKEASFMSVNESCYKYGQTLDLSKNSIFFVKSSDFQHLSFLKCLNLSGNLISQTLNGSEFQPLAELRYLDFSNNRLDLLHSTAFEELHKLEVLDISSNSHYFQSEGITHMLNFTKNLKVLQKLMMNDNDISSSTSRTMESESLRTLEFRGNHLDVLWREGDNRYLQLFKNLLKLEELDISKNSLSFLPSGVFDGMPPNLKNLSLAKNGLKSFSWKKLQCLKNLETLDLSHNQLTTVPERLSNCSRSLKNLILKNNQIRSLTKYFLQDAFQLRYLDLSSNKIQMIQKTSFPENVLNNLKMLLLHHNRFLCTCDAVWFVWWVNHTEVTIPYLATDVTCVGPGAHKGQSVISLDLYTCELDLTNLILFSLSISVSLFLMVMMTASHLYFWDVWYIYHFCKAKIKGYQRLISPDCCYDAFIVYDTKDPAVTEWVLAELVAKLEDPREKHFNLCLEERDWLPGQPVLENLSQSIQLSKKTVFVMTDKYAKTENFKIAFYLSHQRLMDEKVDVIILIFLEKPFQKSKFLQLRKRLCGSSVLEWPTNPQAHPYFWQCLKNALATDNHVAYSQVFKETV

[2] = target: T2, hERG channel (Homo sapiens, UniProt Q12809); assay: hERG channel current in HEK293 cells, automated patch clamp; assay type: cell-based; details: HEK-293 cells stably expressing hERG, whole-cell patch clamp, 0.3-30 μM
T2 construct: expressed in transfected cells; host or cells: HEK-293 cells stably expressing hERG
Protocol: Test 2: Detection of the Effect of Compounds on hERG Channel Currents Stably Expressed in HEK293 Cells Using Automated Patch Clamp
Experimental purpose: The concentration-effect relationship of the blocking effect of the compounds on hERG channels was determined using the patch clamp technique and HEK-293 cells stably expressing hERG channels to evaluate their risk of inhibitory effect on cardiac hERG potassium channels.
Experimental method: hERG cells were clamped using the patch clamp technique to form a high-resistance seal and then the membrane was broken. The whole-cell recording mode was used to record the hERG current. Each drug concentration was set to be administered twice for at least 5 minutes. The test concentrations were 0.3 μM, 1 μM, 3 μM, 10 μM and 30 μM, and the changes of the test compounds on hERG current were observed.

[3] = target: T3, CYP1A2 (Homo sapiens, UniProt P05177); assay: Inhibition of human liver microsomal CYP1A2; assay type: in vitro ADME; details: human liver microsomes, 10 μM test substance; read-out: Relative inhibition rate (%) CYP1A2
T3 construct: from tissue; host or cells: human liver microsomes
T3 sequence (P05177 1-516): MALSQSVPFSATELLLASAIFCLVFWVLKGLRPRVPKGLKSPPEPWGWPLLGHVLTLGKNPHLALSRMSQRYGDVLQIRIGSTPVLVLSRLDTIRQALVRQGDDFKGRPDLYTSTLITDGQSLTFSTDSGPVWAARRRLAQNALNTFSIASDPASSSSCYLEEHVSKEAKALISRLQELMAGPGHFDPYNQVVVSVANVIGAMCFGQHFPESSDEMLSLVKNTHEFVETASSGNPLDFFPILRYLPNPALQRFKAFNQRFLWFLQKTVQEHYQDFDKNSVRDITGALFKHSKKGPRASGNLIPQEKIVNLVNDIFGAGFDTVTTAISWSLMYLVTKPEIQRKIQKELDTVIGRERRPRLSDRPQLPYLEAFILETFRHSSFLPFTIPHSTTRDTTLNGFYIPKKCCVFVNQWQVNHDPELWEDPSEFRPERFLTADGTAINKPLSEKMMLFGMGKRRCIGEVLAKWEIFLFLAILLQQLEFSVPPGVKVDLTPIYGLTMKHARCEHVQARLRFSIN
Protocol: Experimental purpose: The inhibitory effects of the test compounds on the major metabolizing enzymes CYP1A2, CYP2C19, CYP2D6 and CYP3A4 in microsomes were evaluated using the human liver microsomal system. Experimental method: The test substance was incubated with a suspension of human liver microsomes containing cytochrome P450 enzymes CYP1A2, CYP2C19, CYP2D6 and CYP3A4 at a concentration of 10 μM in the final incubation system. The known substrates were metabolized by the corresponding single enzymes to generate specific metabolites, and the metabolites were determined by UPLC-MS/MS method. The relative inhibition rate (%) was calculated by the percentage reduction of metabolite production by the test compound and solvent DMSO in the same time period. N is the concentration value of the probe substrate metabolite and it is assumed that the […] with or without inhibitor at 0 min is 0. N+inh is the metabolite concentration in the group with inhibitor, and Nveh is the metabolite concentration in the group without inhibitor. The results of the inhibition test of the compounds of the present invention on human liver microsomal CYP enzymes are shown in Table C.

[4] = test system: CYP3A4; assay: Induction of CYP3A4 in frozen human hepatocytes; assay type: in vitro ADME; details: 72 h induction, concentration and readout not stated; for CYP3A4 Induction percentage relative to positive control (%): positive control Rifampicin
Protocol: Experimental purpose: Using frozen human hepatocytes as the test system, the induction effects of the test substances on CYP1A2, CYP2B6 and CYP3A4 were evaluated from two aspects of enzyme activity and mRNA level.
Experimental method: 24 hours after cell plating, induction was started by adding medium containing the test compound (test concentrations were 10, 1, and 0.1 μM), and fresh drug-containing medium was replaced every 24 hours. After 72 hours of induction, the medium was replaced with medium containing CYP1A2, CYP2B6, and CYP3A4 specific substrates for 30 minutes of incubation. 100 μL was taken for treatment, and the labeled metabolites of the substrates were detected to evaluate the enzyme activity level. Finally, the cells were lysed and reverse transcribed, and the expression levels of CYP1A2, CYP2B6 and CYP3A4 genes in the cells were evaluated by real-time quantitative PCR.
The induction fold of the test compound compared with the blank control and the induction percentage of the test compound compared with the positive control were used as the basis for evaluating the induction potential of the test compound. Among them, the positive control for CYP1A2 is Omeprazole; the positive control for CYP2B6 is Phenobarbital; the positive control for CYP3A4 is Rifampicin.

T2 sequence (Q12809 whole entry): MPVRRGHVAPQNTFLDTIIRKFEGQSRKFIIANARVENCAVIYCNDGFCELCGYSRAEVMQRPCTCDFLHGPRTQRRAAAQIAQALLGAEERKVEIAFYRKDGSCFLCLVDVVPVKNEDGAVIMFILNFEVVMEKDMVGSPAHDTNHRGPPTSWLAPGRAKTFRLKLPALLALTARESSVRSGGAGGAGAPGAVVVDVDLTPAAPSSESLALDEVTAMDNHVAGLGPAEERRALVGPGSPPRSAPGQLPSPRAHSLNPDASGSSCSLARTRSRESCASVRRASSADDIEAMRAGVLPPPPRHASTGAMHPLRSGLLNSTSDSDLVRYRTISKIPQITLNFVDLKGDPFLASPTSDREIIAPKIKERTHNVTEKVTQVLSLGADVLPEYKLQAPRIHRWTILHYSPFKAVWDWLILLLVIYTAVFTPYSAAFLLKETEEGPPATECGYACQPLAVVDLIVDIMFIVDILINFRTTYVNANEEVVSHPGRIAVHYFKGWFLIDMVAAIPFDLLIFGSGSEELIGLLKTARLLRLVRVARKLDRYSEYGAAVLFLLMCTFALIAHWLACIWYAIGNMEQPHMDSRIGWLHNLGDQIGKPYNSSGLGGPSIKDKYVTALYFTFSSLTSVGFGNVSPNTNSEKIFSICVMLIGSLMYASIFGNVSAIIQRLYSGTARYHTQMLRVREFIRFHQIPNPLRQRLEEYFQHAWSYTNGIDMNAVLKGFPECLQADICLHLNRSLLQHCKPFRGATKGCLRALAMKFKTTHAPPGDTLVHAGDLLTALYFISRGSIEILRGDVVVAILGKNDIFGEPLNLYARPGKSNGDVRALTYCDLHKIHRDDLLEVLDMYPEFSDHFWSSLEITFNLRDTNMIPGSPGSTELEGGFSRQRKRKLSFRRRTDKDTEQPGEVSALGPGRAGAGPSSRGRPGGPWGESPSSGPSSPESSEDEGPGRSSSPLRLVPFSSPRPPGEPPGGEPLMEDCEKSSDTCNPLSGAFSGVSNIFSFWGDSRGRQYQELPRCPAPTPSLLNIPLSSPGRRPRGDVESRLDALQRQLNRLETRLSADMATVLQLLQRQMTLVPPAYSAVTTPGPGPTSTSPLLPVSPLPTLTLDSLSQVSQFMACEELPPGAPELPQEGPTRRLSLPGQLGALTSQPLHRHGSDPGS

CCCC[C@](C)(CO)Nc1nc(N)nc2cc(-c3cc(=O)n(C)cc3CN3CCCCC3)ccc12 [Example 8]
EC50 [1]: > 100 µM | IC50 [2]: > 30 µM | inhibition at 10 µM [3]: -10.5% | CYP3A4 Induction fold relative to blank control [4]: 0.6 | CYP3A4 Induction percentage relative to positive control (%) [4]: −1.5%

CCCCN(C)Cc1c[nH]c(=O)cc1-c1cnc2c(N[C@@](C)(CO)CCCC)nc(N)nc2c1 [Example 28, (R)-4-(2-Amino-4-((1-hydroxy-2-methylhexan-2-yl)amino)pyrido[3,2-d]pyrimidin-7-yl)-5-((butyl(methyl)amino)methyl)pyridin-2(1H)-one]
EC50 [1]: 29.5 µM | IC50 [2]: > 30 µM | inhibition at 10 µM [3]: 5.1% | CYP3A4 Induction fold relative to blank control [4]: 2.0 | CYP3A4 Induction percentage relative to positive control (%) [4]: 2.0%

CCCC[C@](C)(CO)Nc1nc(N)nc2cc(-c3cc(=O)[nH]cc3CN(C)CCOC)cnc12 [Example 21]
EC50 [1]: 90.3 µM | IC50 [2]: > 30 µM | inhibition at 10 µM [3]: -4.1% | CYP3A4 Induction fold relative to blank control [4]: 1.4 | CYP3A4 Induction percentage relative to positive control (%) [4]: 1.5%

C=CCCN(C)Cc1c[nH]c(=O)cc1-c1ccc2c(N[C@@](C)(CO)CCCC)nc(N)nc2c1 [Example 35]
EC50 [1]: 68.6 µM | inhibition at 10 µM [3]: 2.7% | CYP3A4 Induction fold relative to blank control [4]: 1.3 | CYP3A4 Induction percentage relative to positive control (%) [4]: 0.9%
